Laboratory results taken from US20140274782A1, “AFFINITY REAGENTS AND METHODS FOR DETECTION, PURIFICATION, AND PROTEOMIC ANALYSIS OF METHYLATED PROTEINS” (The Board of Trustees of the Leland Stanford Junior …, priority 2013, published 2014).

Key:
3×MBT domain of L3MBTL1 [1] = assay: Triple SILAC pull-down, 3xMBT/3xMBTD355N ratio (cytoplasmic, nuclear and chromatin fractions of 293T cells); type: binding, human; conditions: SILAC ratio; for 3xMBT/D355N UNC Heavy / 3xMBT/D355N UNC Light: pull-down 3xMBT vs 3xMBTD355N; for 3xMBT/D355N UNC Heavy: experiment with UNC0638 in heavy SILAC media; for 3xMBT/D355N UNC Light: experiment with UNC0638 in light SILAC media; for Protein Ratios 3xMBT/D355N: pull-down by 3xMBT vs 3xMBTD355N, 293T cells;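 as to all read-outs here: proteins quantified with MaxQuant, requiring at least two unique peptides and quantification in both label directions, normalized to the mean of proteins from a digested loading control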
3×MBT domain of L3MBTL1 [2] = assay: SILAC proteomic pull-down 3×MBT vs 3×MBTD355N from 293T nuclear extract, LC-MS/MS; type: binding, human; conditions: SILAC ratio, 293T nuclear extract pull-down; * = protein identified in only one labeling experiment
Method: Protein pull-downs were performed as described above using 600 μg of nuclear extract prepared with isotopic labels as indicated. After eluting with glutathione, 3×MBT domain was removed by dialysis into high salt and rebinding to GSH-sepharose. Bound proteins were separated by SDS-PAGE and analyzed by in-gel tryptic digest followed by LC-MS/MS. Peptides were identified using MaxQuant version 1.2.2.5 (Cox and Mann (2008) Nat. Biotechnol. 26, 1367-1372) and candidate methylated peptides were verified by manual inspection.
For stable isotope labeling by amino acids in cell culture (SILAC) experiments HEK 293T cells were grown for at least six doublings in DMEM for SILAC supplemented with 10% dialyzed fetal bovine serum (FBS), 230 mg/L L-proline and either 100 mg/L each of L-lysine and L-arginine (“light” medium), D4-L-lysine and ^13C6-L-arginine (“medium” media), or ^13C6^15N2-L-lysine and ^13C6^15N4-L-arginine (Thermo Scientific). Heavy methyl labeling used DMEM without L-Methionine or L-Cysteine supplemented with D3^13C-L-Methionine (Sigma), L-Cysteine (Sigma) and 10% dialyzed FBS.
600 μg of nuclear extract was incubated overnight rotating at 4° C. with 20 μl packed 3×MBT or 3×MBTD355N beads in a total volume of 250 μL with binding buffer. Supernatant was removed and saved for use as a loading control. Beads were washed 4×5 minutes with 0.5 mL binding buffer. Protein was eluted by incubating in 20 μL elution buffer (10 mg/mL glutathione in 50 mM Tris pH 8.0) rotating at 4° C. for four hours. Elutions from 3×MBT and 3×MBTD355N were combined and dialyzed overnight at 4° C. against 10,000× volume of dissociation buffer (50 mM Tris pH 7.5, 750 mM NaCl) in a 0.1 mL Slide-A-Lyzer MINI Dialysis Device with 3.5K molecular weight cutoff (Thermo Scientific). 80 μL of GSH-Sepharose was prepared by washing briefly three times with 0.5 mL binding buffer. Dialyzed proteins were added to the GSH-Sepharose and incubated 4 hours rotating at 4° C. to deplete the GST-fusion domains. Supernatant was transferred to a fresh 1.5 mL tube. Proteins were separated by SDS-PAGE on a 10% polyacrylamide gel and stained using SilverQuest Silver Staining Kit (Life Technologies). Lanes were excised, residual 3×MBT band was removed, and gel was diced into 0.5 mm cubes. Gel pieces were destained and processed by in-gel digestion (Carlson et al. (2011) Science Signaling 4) with sequencing grade trypsin (Promega) and the peptide sample was dried completely in a vacuum centrifuge. To prepare a loading control, 2 μL each of light and heavy nuclear extract were combined, 6 μL of 8M urea was added, proteins were denatured by adding 2 μL of 100 mM dithiothreitol in digest buffer (50 mM ammonium bicarbonate) and heating to 60° C. for 1 hour, cysteine was alkylated by adding 2.2 μL 100 mg/mL iodoacetamide in digest buffer and incubating 1 hour at room temperature in darkness, and proteins were digested by adding 80 μL trypsin (Promega) at 12.5 ng/μL in digest buffer and incubating overnight at room temperature in darkness. Digestion was stopped by adding 10 μL of 10% formic acid.
Each experiment consisted of two sets of pull-downs: “forward” labeling with 3×MBT incubated with light nuclear extract and 3×MBTD355N with medium extract, and a second “reverse” labeling experiment with the label conditions swapped. Proteins were included in the results if they were quantified in both labeling directions. To determine reproducibility the entire experiment including the label swap was duplicated using independent protein preparations and a mass spectrometer at another institution.
For 3×MBT pull-down experiment #1 the gel lane was processed and peptides were loaded off-line onto a first dimension trap column (Waters Xbridge, C18, 10 μm particle size, 100 Å pore size, 5 cm packing length, 150 μm column i.d.). […]

DNA ligase 1
3xMBT/D355N UNC Heavy (3×MBT domain of L3MBTL1 [1]): 3.18 log base 2
3xMBT/D355N UNC Light (3×MBT domain of L3MBTL1 [1]): 1.96 log base 2
Protein Ratios 3xMBT/D355N (3×MBT domain of L3MBTL1 [1]): 5.9
Protein Ratio 3xMBT/D355N (3×MBT domain of L3MBTL1 [2]): 10.7

MCM7: protein with methylated lysine identified in 3xMBT pull-down
3xMBT/D355N UNC Heavy (3×MBT domain of L3MBTL1 [1]): 2.23 log base 2
3xMBT/D355N UNC Light (3×MBT domain of L3MBTL1 [1]): 2.52 log base 2
Protein Ratio 3xMBT/D355N (3×MBT domain of L3MBTL1 [2]): 6.7

MSH6: protein with methylated lysine identified in 3xMBT pull-down
3xMBT/D355N UNC Heavy (3×MBT domain of L3MBTL1 [1]): 2.51 log base 2
3xMBT/D355N UNC Light (3×MBT domain of L3MBTL1 [1]): 2.41 log base 2
Protein Ratio 3xMBT/D355N (3×MBT domain of L3MBTL1 [2]): 1.2

Protein Wiz
3xMBT/D355N UNC Heavy (3×MBT domain of L3MBTL1 [1]): 0.93 log base 2
3xMBT/D355N UNC Light (3×MBT domain of L3MBTL1 [1]): 2.02 log base 2
Protein Ratios 3xMBT/D355N (3×MBT domain of L3MBTL1 [1]): 2.7
Protein Ratio 3xMBT/D355N (3×MBT domain of L3MBTL1 [2]): 5.3

RBM25: protein with methylated lysine identified in 3xMBT pull-down
3xMBT/D355N UNC Heavy (3×MBT domain of L3MBTL1 [1]): 2.41 log base 2
3xMBT/D355N UNC Light (3×MBT domain of L3MBTL1 [1]): 2.28 log base 2
Protein Ratio 3xMBT/D355N (3×MBT domain of L3MBTL1 [2]): 7.7

SSRP1: protein with methylated lysine identified in 3xMBT pull-down
3xMBT/D355N UNC Heavy (3×MBT domain of L3MBTL1 [1]): 4.47 log base 2
3xMBT/D355N UNC Light (3×MBT domain of L3MBTL1 [1]): 4.11 log base 2
Protein Ratio 3xMBT/D355N (3×MBT domain of L3MBTL1 [2]): 14.6
